“Also recorded” adds a separate entry of the source.
Legend:
cTnI-G203S mice [1] = experiment: Echocardiography of pre-cardiomyopathic cTnI-G203S mice (Example 15); format: in vivo, mouse; conditions: 5 μM, 3×/wk/5 wk, FIG. 15
Source text: Twenty to thirty week-old male mice expressing the human cTnI gene encoding the human disease-causing cTnI-G203S were generated and used for the in vivo studies. By way of background, the mice develop hallmark features of HCM between 20 and 25 weeks (Viola H, Johnstone V, Cserne Szappanos H, Richman T, Tsoutsman T, Filipovska A, et al. The L-type Ca(2+) channel facilitates abnormal metabolic activity in the cTnI-G2035 mouse model of hypertrophic cardiomyopathy. J Physiol. 2016; 594(14):4051-70; Viola H M, Shah A A, Johnstone V P A, Cserne Szappanos H, Hodson M P, Hool L C. Characterization and validation of a preventative therapy for hypertrophic cardiomyopathy in a murine model of the disease. Proc Nati Aced Sci U S A. 2020; 117(37):23113-24; Tsoutsman T, Chung J, Doolan A, Nguyen L, Williams IA, Tu E, et al. Molecular insights from a novel cardiac troponin I mouse model of familial hypertrophic cardiomyopathy. J Mol Cell Cardiol. 2006; 41(4):623-32). Age-matched male mice expressing the normal human troponin I gene were used as controls and indicated as wild-type (wt). For in vivo studies, 20-week old cTnI-G203S mice were treated with 10 μM AID(S)-TAT (2 mg/kg) or 5 μM AID-TAT mutant peptides via intraperitoneal injection, 3 times per week for a total duration of 5 weeks. The peptide was dissolved in phosphate buffered saline solution (PBS), and the total amount of the 10 μM AID-TAT mutant peptides administered over 5 weeks was 0.9 mg. The total amount of the 5 μM AID-TAT mutant peptides administered over 5 weeks was 0.45 mg Male mice were utilized to eliminate potential differences in responses due to gender. The number of mice used is indicated by N.
Echocardiographic studies to measure left ventricular function were performed on mice under light methoxyflurane anaesthesia with the use of an i13L probe on a Vivid™ 7 IQ ultrasound system (GE Healthcare, Little Chalfont, UK) as previously described (Viola H, Johnstone V, Cserne Szappanos H, Richman T, Tsoutsman T, Filipovska A, et al. The L-type Ca(2+) channel facilitates abnormal metabolic activity in the cTnI-G2035 mouse model of hypertrophic cardiomyopathy. J Physiol. 2016; 594(14):4051-70; Viola H M, Shah A A, Johnstone V P A, Cserne Szappanos H, Hodson M P, Hool L C. Characterization and validation of a preventative therapy for hypertrophic cardiomyopathy in a murine model of the disease. Proc Natl Acad Sci U S A. 2020; 117(37):23113-24; Viola H M, Johnstone V P A, Cserne Szappanos H, Richman T R, Tsoutsman T, Filipovska A, et al. The Role of the L-Type Ca(2+) Channel in Altered Metabolic Activity in a Murine Model of Hypertrophic Cardiomyopathy. JACC Basic Transl Sci. 2016; 1(1-2):61-72). Each N represents the average of quantitative measurements from wt or cTnI-G203S mice for each treatment group.

cTnI-G203S mice [2] = experiment: Myocardial fibrosis, Masson's Trichrome collagen volume fraction; format: in vivo, mouse; conditions: 5 μM, 3×/wk/5 wk from 20 weeks of age; versus cTnI-G203S AID(S)-TAT; FIG. 14
Source text: Following completion of treatment regimes, mouse hearts were extracted and prepared for Masson's Trichchrome staining based on previously described methods with minor modifications (Van De Vlekkert D, Machado E, d'Azzo A. Analysis of Generalized Fibrosis in Mouse Tissue Sections with Masson's Trichrome Staining. Bio Protoc. 2020; 10(10):e3629). Hearts were washed in PBS and fixed overnight in 10% buffered formalin saline (FSAL-5L; Hurst Scientific, AUS). After fixation, hearts were washed 3×10 min in PBS and incubated overnight in 30% sucrose solution (in PBS). […]
To observe the levels of cardiac fibrosis in mice, a minimum of 15 sections of microscopic fields for each animal were selected randomly for histological analysis. Images of heart sections were obtained using a Nikon upright light microscope (DS-Qi2, Japan) at 20× magnification and analysed using ImageJ (NIH). […]
Here we assessed the efficacy of treating 20-week-old pre-hypertrophic cTnI-G203S mice with 5 μM AID-TAT variant peptides (3×/wk/5 wk) on the development and progression of fibrosis. […] Images were acquired using a Nikon Upright Microscope and collagen volume fraction (%) was determined using ImageJ colour thresholding. […] Values reported as mean±SEM; P values compared with cTnI-G203S AID(S)-TAT as determined by the Kruskal-Wallis test.

For “AIDP7-TAT: QQQEEDLKGYLDWITQAE with TAT sequence”, the IVDS (cTnI-G203S mice [1]) was “trend toward increased LVEDd and LVEDs, and decreased IVDS”, the “EF, ejection fraction” value (cTnI-G203S mice [1]; versus AID(S)-TAT) was “effectively restored” and the “FS, fractional shortening” value (cTnI-G203S mice [1]; versus AID(S)-TAT) was “effectively restored”. The “IVSs, intraventricular septum in systole” value (cTnI-G203S mice [1]; versus AID(S)-TAT) was “significant decrease; also recorded: effectively restored”, the “LVEDd, left ventricular end diameter during diastole” value (cTnI-G203S mice [1]; versus AID(S)-TAT) was “trend toward increased LVEDd and LVEDs, and decreased IVDS” and the “LVEDs, left ventricular end diameter during systole” value (cTnI-G203S mice [1]; versus AID(S)-TAT) was “trend toward increased LVEDd and LVEDs, and decreased IVDS”. The “LVPWd, left ventricular posterior wall in diastole” value (cTnI-G203S mice [1]; versus AID(S)-TAT) was “effectively restored”, the “LVPWs, left ventricular posterior wall in systole” value (cTnI-G203S mice [1]; versus AID(S)-TAT) was “effectively restored; also recorded: significant decrease” and the “left ventricular posterior wall collagen volume fraction (CVF, %)” value (cTnI-G203S mice [2]) was “significantly decreased”.

— patent publication US20240158447A1, “PEPTIDES FOR USE IN THE TREATMENT OR PREVENTION OF MYOCARDIAL DAMAGE” (THE UNIVERSITY OF WESTERN AUSTRALIA, priority 2020, published 2024)
